The source of these data is patent US20230312639A1, “GPER PROTEOLYTIC TARGETING CHIMERAS” (University of Iowa Research Foundation, priority 2020, published 2023).

Entries after “also recorded” stand apart in the source; their conditions may differ.

The subject of experiment [1] is HCC1806 cells. Nature of the experiment: Cell viability assay, 24 hour treatment. It counts as cell-based, human. The note with it: HCC1806, 24 hours, mean ± SD. As for the experimental part:
(§1) Cell cytotoxicity assays. […] In brief, breast cancer cells were seeded in 96 well-plates at a density of 10^4 cells/well in growth media. On the following day, the contents of the 96 well plates were aspirated and replaced by treatment at different concentrations (ranging from 10^-9 to 10^-3 M), followed by the addition of media to bring the total volume to 200 µL/well. The untreated control group was incubated with 200 µL/well of fresh media. One day later, the media were aspirated and replaced by 90 µL media + 10 µL Prestoblue reagent, followed by incubation at 37° C. for 1 h. The fluorescence was excited at 560 nm and emission was recorded at 590 nm using a Spectra Max plus 384 Microplate Spectrophotometer (Molecular Devices, Sunnyvale, CA). Relative cell viability values were expressed as the percentage of the fluorescence recorded from wells containing treated cells compared to the control wells containing untreated cells.
(§2) Each breast cancer cell line was treated for 24 hours with various concentrations of E2-PROTAC or partial PROTAC and then cell viability was assessed using an MTS assay that measures mitochondrial oxido-reductase enzymes capable of converting a tetrazolium salt to a formazan dye (summarized in Table 2). […] These IC50 values were similar to those measured for cells treated with partial PROATAC.

For experiment [2], the system named is MCF-7 cells. Nature of the experiment: Cell viability assay, 24 hour treatment. It counts as cell-based, human. Particulars: MCF-7, 24 hours, mean ± SD. On the procedure:
as §1, §2

For experiment [3], the system named is MDA-MB-231 cells. The experiment is described as follows: Cell viability assay, 24 hour treatment. Particulars: MDA-MB-231, 24 hours. It counts as cell-based, human. As for the experimental part: as §1, §2
Experiment [4] deals with SKBR3 cells. The experiment is described as follows: Cell viability assay, 24 hour treatment. Particulars: SKBR3, 24 hours, mean ± SD. It counts as cell-based, human. On the procedure: as §1, §2
Experiment [5] deals with T1, HiBiT-ERα (Homo sapiens, UniProt P03372).
T1 sequence (P03372 1-595): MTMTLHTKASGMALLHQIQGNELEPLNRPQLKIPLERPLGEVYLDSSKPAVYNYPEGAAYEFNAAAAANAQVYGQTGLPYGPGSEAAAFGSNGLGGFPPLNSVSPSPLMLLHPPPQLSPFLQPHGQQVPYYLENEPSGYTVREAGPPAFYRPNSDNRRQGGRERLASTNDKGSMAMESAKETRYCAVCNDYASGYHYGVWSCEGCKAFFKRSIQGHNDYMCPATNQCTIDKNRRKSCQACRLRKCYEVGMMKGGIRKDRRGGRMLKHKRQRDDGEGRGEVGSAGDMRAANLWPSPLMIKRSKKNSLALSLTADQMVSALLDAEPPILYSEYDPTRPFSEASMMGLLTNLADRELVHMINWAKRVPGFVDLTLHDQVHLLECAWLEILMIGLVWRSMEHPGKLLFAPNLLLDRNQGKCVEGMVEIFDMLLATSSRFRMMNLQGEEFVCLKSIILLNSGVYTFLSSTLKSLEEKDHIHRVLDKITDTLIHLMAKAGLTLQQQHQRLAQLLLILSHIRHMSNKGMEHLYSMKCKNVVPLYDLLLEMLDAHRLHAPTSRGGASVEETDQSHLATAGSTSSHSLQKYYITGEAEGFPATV
Nature of the experiment: Nano-BiT binary luminescence complementation, transfected HEK-293 cells, total receptor. It counts as cell-based. On the procedure:
FIG. 26. […] HEK-293 cells (ERα^-, GPER^-) were transiently transfected with 50 ng HiBiT-GPER or HiBiT-ER plus pcDNA3.1(+) zeo carrier plasmid. […] Results shown represent the mean ± S.E. of three independent experiments.
FIG. 28. […] Total receptor was then measured by binary luminescence complementation in detergent-permeabilized cells. […] Total receptor was then quantified by binary luminescence complementation. Representative luminescence data and mean values and SDs derived from three independent experiments are shown.
Transient transfections and binary Nano-Bit ™ luminescence assays. Total HiBiT-tagged GPER or ER estrogen receptors were detected in detergent-permeabilized cells by binary luminescence complementation with recombinant LgBit and substrate using the Nano-Glo HiBiT Extracellular Detection system kit (Promega Corporation, Madison, Wl). In brief, HEK293 cells (0.75 × 10^6) were seeded in 35 mm tissue culture dishes and 24 hours later were transiently transfected with 50 ng of HiBiT-GPER or HiBiT-ERa and 950 ng of pcDNA3.1(+) zeo carrier plasmid using Lipofectamine 2000 (Invitrogen, Carlsbad, CA). The next day transfected cells were harvested by trypsinization and seeded at a density of 10^4 cells/well in 96-well poly-L-lysine-coated Greiner white-bottomed microplates. On the following day, cell culture media was aspirated and replaced with 100 µL of serum-free PRF-DF12 containing E2-PROTAC, partial-PROTAC, or vehicle at various concentrations and for indicated time intervals at 37° C. […] Following treatment, total HiBiT-tagged receptor was measured in cells which were permeabilized in 0.05% Triton X-100 using HiBiT complementation reagent consisting of LgBiT protein and Nano-Gio® HiBiT substrate. Luminescence was measured using the Infinite 200 PRO multimode microplate reader from Tecan (Raleigh, NC) and reported as Relative Luminescent Units (RLU). All samples were measured in triplicate and expressed as the mean value plus or minus standard deviation.

Experiment [6] deals with T2, HA-b1AR (Homo sapiens, UniProt P08588).
T2 construct: expressed in transfected cells
The experiment is described as follows: Immunofluorescence with HA antibody, stably transfected HEK293 cells. In kind it is cell-based. Particulars: 100 µM, 1 hour.

The target of experiment [7] is HA-CXCR4 (Homo sapiens, UniProt P61073). The description is as above. The note with it: 100 µM, 1 hour. It counts as cell-based.
Experiment [8] concerns the target T3, HA-GPER (recombinant GPER) (Homo sapiens, UniProt Q99527).
T3 construct: expressed in transfected cells
The experiment is described as follows: Surface receptor immunostaining / HA immunoblot in HA-GPER cells (Example 1). In kind it is cell-based. The note with it: 100 uM, 16 hr.

For experiment [9], the system named is HCC 1806 and SKBR3 cells. The experiment is described as follows: Survivability of breast cancer cells (Example 1). Particulars: HCC 1806 and SKBR3, 24 hours of treatment.
The target of experiment [10] is ERβ (Homo sapiens, UniProt Q92731). The experiment is described as follows: Immunostaining of endogenous receptors in MCF-7 cells. The note with it: MCF-7, 1 hour.
The target of experiment [11] is GPER (Homo sapiens, UniProt Q99527). Nature of the experiment: Competitive binding assay in intact SKBR3 cells with E2-FITC as fluoro-tracer (flow cytometry). Details: endogenous in cells; host or cells: SKBR3 human breast carcinoma cells (ATCC). Background: In flow cytometry, cells or beads pass a laser one at a time.

The term IC50 denotes the concentration needed to halve the response being measured. Lower therefore signals inhibition by little substance. One may read the Kd as the equilibrium constant for the complex coming apart.

Take `Cc1ncsc1-c1ccc(CNC(=O)C2CC(O)CN2C(=O)C(NC(=O)COCCOCCOCCOCC(=O)OC2CCC3C4CCc5cc(O)ccc5C4CCC23C)C(C)(C)C)cc1` (stereo not shown) [UI-EP001]: the IC50 in experiment [1] is 34.9 ± 1.2 µM; in experiment [2] it was 9 ± 1.2 µM; in [3], more than 100 µM; in [4], 10.9 ± 1.2 µM. The “reduction in expression level of recombinant ER” value in experiment [5] (100 µM, as early as 1 h) came out at 50%. Further, in [5] (increasing doses, 1 hour, partial PROTAC 100 µM), the “change of HiBiT-ERα” value was “dose-dependent decrease”. The “off-target degradation of HA-b1AR” value in experiment [6] is “without detectable off-target degradation”. The “off-target degradation of HA-CXCR4” value in experiment [7] was “without detectable off-target degradation”. The “surface recombinant GPER / HA-GPER expression” value in experiment [8] was “causes downmodulation of surface recombinant GPER; also recorded: Significant degradation of GPER was observed”. For the same compound, the “survivability compared to partial PROTAC” value in experiment [9] is recorded as “lower survivability”. Moreover, the “nuclear ERβ expression” value in experiment [10] is reported as “Clear site-specific reduction”. Further, the “RBA%, GPER” value in experiment [11] (IC50 of 17β-E2 divided by IC50 of test compound) is recorded as 330%. Moreover, the Kd in experiment [11] (intact SKBR3 cells, E2-FITC, read-out: binding dissociation constant (Kd), GPER) is approximately 0.03 µM.
